Experimental data published in patent US8952157B2, “Apoptosis-inducing agents for the treatment of cancer and immune and autoimmune diseases” (AbbVie Inc., priority 2008, dated 2015).

These compounds were tested against GST-Bcl-2 (Homo sapiens (Human), UniProt P10415) (assay: Time Resolved-Fluorescence Resonance Energy Transfer (TR-FRET) Bcl-2 binding assay). Conditions: not given.
Method in brief: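 Ki values derived from TR-FRET displacement of F-Bak peptide from GST-Bcl-2, detected with Tb-labelled anti-GST antibody (ex 340, em 520/495 nm). Compound dilution series started at 50 μM (2× starting concentration); room-temperature incubation 3 hours.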

Sequence of GST-Bcl-2 (P10415 whole entry): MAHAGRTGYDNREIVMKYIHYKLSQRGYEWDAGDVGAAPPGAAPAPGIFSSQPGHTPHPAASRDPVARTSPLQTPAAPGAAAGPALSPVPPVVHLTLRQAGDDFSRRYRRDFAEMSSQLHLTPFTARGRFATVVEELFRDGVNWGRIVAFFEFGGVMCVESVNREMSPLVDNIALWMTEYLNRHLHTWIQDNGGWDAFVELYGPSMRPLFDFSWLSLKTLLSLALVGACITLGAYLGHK

Compound	Ki [nM]
CC1(C)CCC(CN2CCN(c3ccc(C(=O)NS(=O)(=O)c4ccc(N[C@H]5CC[C@H](NC6CCOCC6)CC5)c([N+](=O)[O-])c4)c(Oc4cc5cc[nH]c5cc4F)c3)CC2)=C(c2ccc(Cl)cc2)C1 [Example 335, Trans-4-(4-{[2-(4-chlorophenyl)-4,4-dimethylcyclohex-1-en-1-yl]methyl}piperazin-1-yl)-2-[(6-fluoro-1H-indol-5-yl)oxy]-N-[(3-nitro-4-{[4-(tetrahydro-2H-pyran-4-ylamino)cyclohexyl]amino}phenyl)sulfonyl]benzamide]	< 0.01

Same assay, conditions: GST-Bcl-2 1 nM, F-Bak peptide probe 100 nM, Tb-anti-GST antibody 1 nM; Ki by Wang's equation

Compound	Ki [nM]
CC1(C)CCC(CN2CCN(c3ccc(C(=O)NS(=O)(=O)c4ccc(NC5CCN(C6CCCC6)CC5)c([N+](=O)[O-])c4)c(Oc4ccccc4Cl)c3)CC2)=C(c2ccc(Cl)cc2)C1 [Example 117, 2-(2-chlorophenoxy)-4-(4-{[2-(4-chlorophenyl)-4,4-dimethylcyclohex-1-en-1-yl]methyl}piperazin-1-yl)-N-({4-[(1-cyclopentylpiperidin-4-yl)amino]-3-nitrophenyl}sulfonyl)benzamide]	0.072
CN1CCC(Nc2ccc(S(=O)(=O)NC(=O)c3ccc(N4CCN(CC5=C(c6ccc(Cl)cc6)CC(C)(C)CC5)CC4)cc3Oc3ccccc3C(=O)N(C)C)cc2[N+](=O)[O-])CC1 [Example 214, 2-(5-(4-((2-(4-chlorophenyl)-4,4-dimethylcyclohex-1-enyl)methyl)piperazin-1-yl)-2-(4-(1-methylpiperidin-4-ylamino)-3-nitrophenylsulfonylcarbamoyl)phenoxy)-N,N-dimethylbenzamide]	0.221
CNC(=O)c1cccc(Oc2cc(N3CCN(Cc4ccccc4-c4ccc(Cl)cc4)CC3)ccc2C(=O)NS(=O)(=O)c2ccc(NCCCN3CCOCC3)c([N+](=O)[O-])c2)c1 [Example 103, 4-(4-((4′-chlorobiphenyl-2-yl)methyl)piperazin-1-yl)-2-(3-(methylcarbamoyl)phenoxy)-N-(4-(3-morpholinopropylamino)-3-nitrophenylsulfonyl)benzamide]	6.75
CC1(C)CCC(CN2CCN(c3ccc(C(=O)NS(=O)(=O)c4ccc(NCC5CCOCC5)c([N+](=O)[O-])c4)c(Oc4cc5cc[nH]c5cc4F)c3)CC2)=C(c2ccc(Cl)cc2)C1 [Example 238, 4-(4-{[2-(4-chlorophenyl)-4,4-dimethylcyclohex-1-en-1-yl]methyl}piperazin-1-yl)-2-[(6-fluoro-1H-indol-5-yl)oxy]-N-({3-nitro-4-[(tetrahydro-2H-pyran-4-ylmethyl)amino]phenyl}sulfonyl)benzamide]	0.124
CCNCc1cccc(Oc2cc(N3CCN(Cc4ccccc4-c4ccc(Cl)cc4)CC3)ccc2C(=O)NS(=O)(=O)c2ccc(NCC3CCOCC3)c([N+](=O)[O-])c2)c1 [Example 81, 4-(4-((4′-chloro-1,1′-biphenyl-2-yl)methyl)piperazin-1-yl)-2-(3-((ethylamino)methyl)phenoxy)-N-((3-nitro-4-((tetrahydro-2H-pyran-4-ylmethyl)amino)phenyl)sulfonyl)benzamide]	31
O=C(NS(=O)(=O)c1ccc(NCC2CCOCC2)c([N+](=O)[O-])c1)c1ccc(N2CCN(Cc3ccccc3-c3ccc(Cl)cc3)CC2)cc1Oc1ccc(-n2ccnc2)cc1 [Example 76, 4-(4-((4′-chloro-1,1′-biphenyl-2-yl)methyl)piperazin-1-yl)-2-(4-(1H-imidazol-1-yl)phenoxy)-N-((3-nitro-4-((tetrahydro-2H-pyran-4-ylmethyl)amino)phenyl)sulfonyl)benzamide]	240
CN(C)CCCNc1ccc(S(=O)(=O)NC(=O)c2ccc(N3CCN(CC4=C(c5ccc(Cl)cc5)CC(C)(C)CC4)CC3)cc2Oc2ccccc2F)cc1[N+](=O)[O-] [Example 137, 4-(4-{[2-(4-chlorophenyl)-4,4-dimethylcyclohex-1-en-1-yl]methyl}piperazin-1-yl)-N-[(4-{[3-(dimethylamino)propyl]amino}-3-nitrophenyl)sulfonyl]-2-(2-fluorophenoxy)benzamide]	0.021
Cc1c(O)cccc1Oc1cc(N2CCN(CC3=C(c4ccc(Cl)cc4)CC(C)(C)CC3)CC2)ccc1C(=O)NS(=O)(=O)c1ccc(NC2CCN(C)CC2)c([N+](=O)[O-])c1 [Example 159]	0.526
CN(C)CCCNc1ccc(S(=O)(=O)NC(=O)c2ccc(N3CCN(Cc4ccccc4-c4ccc(Cl)cc4)CC3)cc2Oc2cccc3c2ccn3C)cc1[N+](=O)[O-] [Example 16, 4-(4-((4′-chloro-1,1′-biphenyl-2-yl)methyl)piperazin-1-yl)-N-((4-((3-(dimethylamino)propyl)amino)-3-nitrophenyl)sulfonyl)-2-((1-methyl-1H-indol-4-yl)oxy)benzamide]	3.04
CC1(C)CCC(CN2CCN(c3ccc(C(=O)NS(=O)(=O)c4ccc(NCC5CCOCC5)c([N+](=O)[O-])c4)c(Oc4ccc(NS(C)(=O)=O)nc4)c3)CC2)=C(c2ccc(Cl)cc2)C1 [Example 356, 4-(4-{[2-(4-chlorophenyl)-4,4-dimethylcyclohex-1-en-1-yl]methyl}piperazin-1-yl)-2-({6-[(methylsulfonyl)amino]pyridin-3-yl}oxy)-N-({3-nitro-4-[(tetrahydro-2H-pyran-4-ylmethyl)amino]phenyl}sulfonyl)benzamide]	2.82
Cc1cc2cc(Oc3cc(N4CCN(CC5=C(c6ccc(Cl)cc6)CC(C)(C)CC5)CC4)ccc3C(=O)NS(=O)(=O)c3ccc(NCCCN4CCOCC4)c([N+](=O)[O-])c3)ccc2[nH]1 [Example 4, 4-(4-((2-(4-chlorophenyl)-4,4-dimethylcyclohex-1-en-1-yl)methyl)piperazin-1-yl)-2-((2-methyl-1H-indol-5-yl)oxy)-N-((4-((3-morpholin-4-ylpropyl)amino)-3-nitrophenyl)sulfonyl)benzamide]	2.47
CN1CCC(Nc2ccc(S(=O)(=O)NC(=O)c3ccc(N4CCN(CC5=C(c6ccc(Cl)cc6)CC(C)(C)CC5)CC4)cc3Oc3ccc(F)cc3)cc2[N+](=O)[O-])CC1 [Example 118, 4-(4-{[2-(4-chlorophenyl)-4,4-dimethylcyclohex-1-en-1-yl]methyl}piperazin-1-yl)-2-(4-fluorophenoxy)-N-({4-[(1-methylpiperidin-4-yl)amino]-3-nitrophenyl}sulfonyl)benzamide]	0.151
CC1(C)CCC(CN2CCN(c3ccc(C(=O)NS(=O)(=O)c4cnc(OC[C@@H]5CCN(CC(F)F)C5)c(Cl)c4)c(Oc4cnc(N)c(Cl)c4)c3)CC2)=C(c2ccc(Cl)cc2)C1 [Example 400, 2-[(6-amino-5-chloropyridin-3-yl)oxy]-N-[(5-chloro-6-{[(3R)-1-(2,2-difluoroethyl)pyrrolidin-3-yl]methoxy}pyridin-3-yl)sulfonyl]-4-(4-{[2-(4-chlorophenyl)-4,4-dimethylcyclohex-1-en-1-yl]methyl}piperazin-1-yl)benzamide]	0.082
CC1(C)CCC(CN2CCN(c3ccc(C(=O)NS(=O)(=O)c4ccc(NC5CCN(C6CCOCC6)CC5)c([N+](=O)[O-])c4)c(Oc4ccnc(N)c4)c3)CC2)=C(c2ccc(Cl)cc2)C1 [Example 273, 2-[(2-aminopyridin-4-yl)oxy]-4-(4-{[2-(4-chlorophenyl)-4,4-dimethylcyclohex-1-en-1-yl]methyl}piperazin-1-yl)-N-({3-nitro-4-[(1-tetrahydro-2H-pyran-4-ylpiperidin-4-yl)amino]phenyl}sulfonyl)benzamide]	0.516
CC1(C)CCC(CN2CCN(c3ccc(C(=O)NS(=O)(=O)c4ccc(NCC5(N)CCOCC5)c([N+](=O)[O-])c4)c(Oc4cccc(Cl)c4)c3)CC2)=C(c2ccc(Cl)cc2)C1 [Example 109, N-[(4-{[(4-aminotetrahydro-2H-pyran-4-yl)methyl]amino}-3-nitrophenyl)sulfonyl]-2-(3-chlorophenoxy)-4-(4-{[2-(4-chlorophenyl)-4,4-dimethylcyclohex-1-en-1-yl]methyl}piperazin-1-yl)benzamide]	0.237
CN1CCC(Nc2ccc(C(=O)NS(=O)(=O)c3ccc(N4CCN(Cc5ccccc5-c5ccc(Cl)cc5)CC4)cc3Oc3cc(Cl)cc(Cl)c3)cc2[N+](=O)[O-])CC1 [Example 111, N-{[4-{4-[(4′-chloro-1,1′-biphenyl-2-yl)methyl]piperazin-1-yl}-2-(3,5-dichlorophenoxy)phenyl]sulfonyl}-4-[(1-methylpiperidin-4-yl)amino]-3-nitrobenzamide]	17.4
CC1(C)CCC(CN2CCN(c3ccc(C(=O)NS(=O)(=O)c4ccc(N[C@@H]5CCCN(C(CF)CF)C5)c([N+](=O)[O-])c4)c(Oc4cnc(N)c(Cl)c4)c3)CC2)=C(c2ccc(Cl)cc2)C1 [Example 382, 2-[(6-amino-5-chloropyridin-3-yl)oxy]-4-(4-{[2-(4-chlorophenyl)-4,4-dimethylcyclohex-1-en-1-yl]methyl}piperazin-1-yl)-N-{[4-({(3R)-1-[2-fluoro-1-(fluoromethyl)ethyl]piperidin-3-yl}amino)-3-nitrophenyl]sulfonyl}benzamide]	0.114
CC1(C)CCC(CN2CCN(c3ccc(C(=O)NS(=O)(=O)c4ccc(NC5CCN(C6CC6)CC5)c([N+](=O)[O-])c4)c(Oc4ccccc4F)c3)CC2)=C(c2ccc(Cl)cc2)C1 [Example 123, 4-(4-{[2-(4-chlorophenyl)-4,4-dimethylcyclohex-1-en-1-yl]methyl}piperazin-1-yl)-N-({4-[(1-cyclopropylpiperidin-4-yl)amino]-3-nitrophenyl}sulfonyl)-2-(2-fluorophenoxy)benzamide]	0.11
CC1(C)CCC(CN2CCN(c3ccc(C(=O)NS(=O)(=O)c4ccc(NC5CCN(C6CCOCC6)CC5)c([N+](=O)[O-])c4)c(Oc4cccc5c4CC(=O)N5)c3)CC2)=C(c2ccc(Cl)cc2)C1 [Example 289, 4-(4-{[2-(4-chlorophenyl)-4,4-dimethylcyclohex-1-en-1-yl]methyl}piperazin-1-yl)-N-({3-nitro-4-[(1-tetrahydro-2H-pyran-4-ylpiperidin-4-yl)amino]phenyl}sulfonyl)-2-[(2-oxo-2,3-dihydro-1H-indol-4-yl)oxy]benzamide]	< 0.01
